{"source": "paper PMC3238500", "about": "(Archives of biochemistry and biophysics, 2011)", "target": "pyruvate carboxylase R472S mutant (RePC) (Rhizobium etli, UniProt Q2K340, R472S)", "type": "biochemical", "data": [{"molecule": "CC(=O)SCCNC(=O)CCNC(=O)[C@H](O)C(C)(C)COP(=O)(O)OP(=O)(O)OC[C@H]1O[C@@H](n2cnc3c(N)ncnc32)[C@H](O)[C@@H]1OP(=O)(O)O", "note": "[acetyl CoA]", "values": [{"measurement": "Ka (activation constant)", "result": "1.65 ± 0.05", "unit": "mM"}]}]}
